The results in this text go back to patent publication US20240383922A1, “KRAS Modulating Compounds” (Gilead Sciences, Inc., priority 2023, published 2024).

Each structure is given as a SMILES string. Like-named read-outs stand apart in the source and are kept apart here.

One assay has as its target GDP-loaded KRAS-G12V (Homo sapiens (Human), UniProt P01116, G12V). In words: KRAS (GDP) biochemical TR-FRET probe displacement assay, KRAS-G12V. It counts as binding. The following applies: 2 hours. As to the method: (§1) KRAS (GDP) Biochemical Assays:
(§2) Compounds were serially diluted (1:3) in DMSO. The LabCyte ECHO Acoustic dispenser was used to pre-spot the assay plates (384-well Non-Binding Surface plates, Corning, Catalog #3824) with 50 nL of compound. 5 μL of 2× enzyme concentration was added to the pre-spotted plates and incubated for 30 minutes before adding 5 μL of 2× concentration of Eu-streptavidin and Cy-5 labelled probe (10 μL final reaction volume). The plates were incubated at room temperature for 2 hours before measuring TR-FRET ratio (665 nm/615 nm) on the Envision multimode plate reader. The ratios were normalized to a positive (saturating concentration of known inhibitor) and negative (DMSO) control and plotted against the log of compound concentration.
Background: Time-resolved FRET reads energy transfer from a long-lived donor to a nearby acceptor.

Assay [1] relates to cellular pERK in ASPC-1 (KRAS G12D) cell-line. In words: Cell based pERK assay (HTRF), ASPC-1. To be noted: ASPC-1 (KRAS G12D) cells, 2 hours incubation. The procedure, abridged: (§3)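 Cells plated d−1; AsPC-1 5000/well, others 7500/well. Media: RPMI + 10% FBS (AsPC-1, NCI-H441, Kuramochi), DMEM (MIA-PaCa-2). Cmpd 3-fold dilutions, 2 h 37 °C, 5% CO2. pERK1/2 HTRF, RT o/n, 665/615 ratio. IC50 by sigmoidal fit.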

The target of assay [2] is GDP-loaded wild-type KRAS (WT) (Homo sapiens (Human), UniProt P01116). The experiment in a line: KRAS (GDP) biochemical TR-FRET probe displacement assay, WT KRAS. It counts as binding. The following applies: 2 hours. As to the method: as §1, §2
Sequence of GDP-loaded wild-type KRAS (WT) (P01116-2 other isoform, or with tags, fused parts or gaps): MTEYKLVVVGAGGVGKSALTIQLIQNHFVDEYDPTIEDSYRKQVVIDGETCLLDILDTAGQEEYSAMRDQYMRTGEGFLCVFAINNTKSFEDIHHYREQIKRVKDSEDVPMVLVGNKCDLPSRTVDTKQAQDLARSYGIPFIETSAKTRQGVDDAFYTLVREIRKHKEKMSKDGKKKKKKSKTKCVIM
For the next assay, the target named is GDP-loaded KRAS-G12C (Homo sapiens (Human), UniProt P01116, G12C). In words: KRAS (GDP) biochemical TR-FRET probe displacement assay, KRAS-G12C. It counts as binding. The following applies: 2 hours. As to the method: as §1, §2
Sequence of GDP-loaded KRAS-G12C (P01116-2 other isoform, or with tags, fused parts or gaps G12C): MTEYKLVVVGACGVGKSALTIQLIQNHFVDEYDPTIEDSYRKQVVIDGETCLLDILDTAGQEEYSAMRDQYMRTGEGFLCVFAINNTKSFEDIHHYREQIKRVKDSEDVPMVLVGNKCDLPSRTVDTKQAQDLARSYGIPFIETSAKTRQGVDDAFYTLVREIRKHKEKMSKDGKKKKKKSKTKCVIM
Assay [3] relates to cellular pERK in Kuramochi (WT KRAS) cell-line. The experiment in a line: Cell based pERK assay (HTRF), Kuramochi. To be noted: Kuramochi (WT KRAS) cells, 2 hours incubation. The method, boiled down: as §3
In assay [4] the test system is cellular pERK in MIA-PaCa-2 (KRAS-G12C) cell-line. The experiment in a line: Cell based pERK assay (HTRF), MIA-PaCa-2. To be noted: MIA-PaCa-2 (KRAS-G12C) cells, 2 hours incubation, read-out: MIAPaCa2 pERK EC50. The method, boiled down:
as §3

For another assay, the target named is GDP-loaded KRAS-G12D (Homo sapiens (Human), UniProt P01116, G12D). The experiment in a line: KRAS (GDP) biochemical TR-FRET probe displacement assay, KRAS-G12D. The following applies: 2 hours. It counts as binding. As to the method:
as §1, §2

In assay [5] the test system is cellular pERK in NCI-H441 (KRAS-G12V) cell-line. The experiment in a line: Cell based pERK assay (HTRF), NCI-H441. The following applies: NCI-H441 (KRAS-G12V) cells, 2 hours incubation. The procedure, abridged: as §3

Sequence of GDP-loaded KRAS-G12D (P01116-2 other isoform, or with tags, fused parts or gaps G12D): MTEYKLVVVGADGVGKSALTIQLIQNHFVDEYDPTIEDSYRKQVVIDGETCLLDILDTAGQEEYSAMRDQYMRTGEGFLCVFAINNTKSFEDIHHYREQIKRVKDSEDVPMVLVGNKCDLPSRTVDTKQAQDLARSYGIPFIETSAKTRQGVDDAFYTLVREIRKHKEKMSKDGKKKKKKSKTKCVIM
Sequence of GDP-loaded KRAS-G12V (P01116-2 other isoform, or with tags, fused parts or gaps G12V): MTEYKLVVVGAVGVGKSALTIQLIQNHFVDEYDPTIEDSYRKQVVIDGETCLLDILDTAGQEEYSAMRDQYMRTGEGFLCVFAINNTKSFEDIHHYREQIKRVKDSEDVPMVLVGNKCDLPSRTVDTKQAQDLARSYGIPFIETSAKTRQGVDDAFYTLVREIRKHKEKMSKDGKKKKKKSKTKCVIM

A word on the IC50: it is the concentration at which inhibition is half-maximal. Read a low IC50 as greater potency in that assay. A word on the EC50: it is the midpoint of the concentration-response curve. For the compound `C#Cc1c(F)ccc2cccc(-c3nc4c5c(nc(OC[C@@]67CCCN6[C@H](COc6cc(C(F)(F)F)ncn6)CC7)nc5c3F)N3CCCOC[C@@H]3CC4)c12` [Example 6-15], the IC50 at GDP-loaded KRAS-G12V amounted to 29.2 nM; in assay [2], 67.9 nM; at GDP-loaded KRAS-G12C it was 36.6 nM; on GDP-loaded KRAS-G12D, 38.5 nM. The EC50 is above 859 nM in assay [1] (Homo sapiens, ASPC1); 231 nM in assay [3]; 403 nM in assay [4] (Homo sapiens); above 749 nM in assay [5] (Homo sapiens).
As to `C#Cc1c(F)ccc2cc(N)cc(-c3nc4c5c(nc(OC[C@@]67CCCN6[C@H](COc6nccnc6C(F)F)CC7)nc5c3F)N3CCCOC[C@@H]3CC4)c12` [Example 7-6], the 50% inhibitory concentration (IC50) is 1.2 nM at GDP-loaded KRAS-G12V, 1.93 nM in assay [2], 1.09 nM at GDP-loaded KRAS-G12C and 3.15 nM at GDP-loaded KRAS-G12D. Further, the EC50 in assay [1] (Homo sapiens, ASPC1) amounted to 32.1 nM; in assay [3], 4.17 nM; in assay [4] (Homo sapiens), 3.88 nM; in assay [5] (Homo sapiens), 11.8 nM.
As to `C#Cc1c(F)ccc2cccc(-c3nc4c5c(nc(OCC6(CN7CCCCC7)CC6)nc5c3F)N3CCCOC[C@@H]3CC4)c12` [Example 15-2], the IC50 on GDP-loaded KRAS-G12V was found to be 17.1 nM; at GDP-loaded KRAS-G12C, 13.4 nM; at GDP-loaded KRAS-G12D it was 22.2 nM. Besides, the concentration for a half-maximal effect (EC50) in assay [1] (Homo sapiens, ASPC1) stood at 216 nM; in assay [3] it was 85.9 nM; in assay [4] (Homo sapiens) it was 115 nM; in assay [5] (Homo sapiens), 272 nM.
For `C#Cc1c(F)ccc2cc(O)cc(C3=C(F)C4N=C(OC[C@@]56CCCN5C[C@H](F)C6)N=C5C4C(=C3F)C(C)=C[C@H]3COCCCN53)c12` (stereo partly shown) [Example 6-28], the IC50 is 2.69 nM at GDP-loaded KRAS-G12V, 3.43 nM in assay [2], 2.53 nM at GDP-loaded KRAS-G12C and 2.82 nM at GDP-loaded KRAS-G12D. Further, the EC50 in assay [1] (Homo sapiens, ASPC1) turned out to be 17.1 nM; in assay [3], 11.7 nM; in assay [4] (Homo sapiens), 2.34 nM; in assay [5] (Homo sapiens), 7.98 nM.
For `C#Cc1c(F)ccc2cc(O)cc(-c3nc4c5c(nc(OC[C@@]67CCCN6C[C@H](F)C7)nc5c3F)N3CCCCC3CCn3nncc3-4)c12` (mixture of isomers) [Example 11-1, 5-ethynyl-6-fluoro-4-(1-fluoro-14-(((2R,7aS)-2-fluorotetrahydro-1H-pyrrolizin-7a(5H)-yl)methoxy)-8,8a,9,10,11,12-hexahydro-7H-3,5,6,6a,12a,13,15-heptaazabenzo[4,5]cyclopenta[8,9]cyclonona[1,2,3-de]naphthalen-2-yl)naphthalen-2-ol], the IC50 (on GDP-loaded KRAS-G12V; in assay [2]; on GDP-loaded KRAS-G12C; at GDP-loaded KRAS-G12D) was above 1000 nM throughout. Besides, the EC50 in assay [1] (read-out: AsPC1 pERK EC50), in assay [3], in assay [4] and in assay [5] was above 1000 nM each time.
Turning to `C#Cc1c(F)ccc2cc(N)cc(-c3c(F)c4c5c(nc(OC[C@@]67CCCN6C[C@H](F)C7)nc5c3F)N3CCCOC[C@@H]3CC4)c12` [Example 7-12], the IC50 turned out to be 15.8 nM at GDP-loaded KRAS-G12V, 30 nM in assay [2], 4.58 nM on GDP-loaded KRAS-G12C and 24.6 nM on GDP-loaded KRAS-G12D. Besides, the EC50 worked out at 104 nM in assay [1] (Homo sapiens, ASPC1); 7.88 nM in assay [3]; 8.18 nM in assay [4] (Homo sapiens); 32.6 nM in assay [5] (Homo sapiens).
Turning to `C#Cc1c(F)ccc2cc(O)cc(-c3c(F)c4c5c(nc(OC[C@@]67CCCN6C[C@H](F)C7)nc5c3F)N3CCCOC[C@@H]3CC4)c12` (mixture of isomers) [Example 6-21], the IC50 at GDP-loaded KRAS-G12V was determined as 0.4 nM; in assay [2], 0.88 nM; on GDP-loaded KRAS-G12C, 0.54 nM; at GDP-loaded KRAS-G12D, 0.87 nM. In addition, the EC50 in assay [1] (Homo sapiens, ASPC1) is 3.12 nM; in assay [3], 5.94 nM; in assay [4] (Homo sapiens), 1.08 nM; in assay [5] (Homo sapiens) it was 1.78 nM.
`C#Cc1c(F)ccc2cc(O)cc(-c3nc4c5c(nc(OC[C@@]67CCCN6[C@H](COc6cc(C(F)(F)F)ncn6)CC7)nc5c3F)N3CCCOC[C@@H]3CC4)c12` [Example 6-12]: the IC50 on GDP-loaded KRAS-G12V turned out to be 0.22 nM; in assay [2], 0.67 nM; at GDP-loaded KRAS-G12C, 0.92 nM; at GDP-loaded KRAS-G12D it was 0.47 nM. Also, the EC50 was 1.53 nM in assay [1] (Homo sapiens, ASPC1); 1.34 nM in assay [3]; 0.149 nM in assay [4] (Homo sapiens); 0.73 nM in assay [5] (Homo sapiens).
`C#Cc1c(F)ccc2cccc(-c3nc4c5c(nc(OC[C@@]67CCCN6[C@H](COC(=O)N(CC)CC)CC7)nc5c3F)N3CCCOC[C@@H]3CC4)c12` [Example 16-1, ((3S,7aS)-7a-((((S)-2-(8-ethynyl-7-fluoronaphthalen-1-yl)-1-fluoro-4,5,5a,6,9,10-hexahydro-8H-7-oxa-3,10a,11,13-tetraazanaphtho[1,8-ab]heptalen-12-yl)oxy)methyl)hexahydro-1H-pyrrolizin-3-yl)methyl diethylcarbamate]: the results for the IC50 at GDP-loaded KRAS-G12V, on GDP-loaded KRAS-G12C and at GDP-loaded KRAS-G12D were 30.9 nM, 33.1 nM and 42.3 nM, respectively. The EC50 turned out to be 647 nM in assay [1] (Homo sapiens, ASPC1); 242 nM in assay [3]; 231 nM in assay [4] (Homo sapiens); 543 nM in assay [5] (Homo sapiens).
With `C#Cc1c(F)ccc2cc(O)cc(-c3nc4c5c(nc(OC[C@@]67CCCN6C[C@H](F)C7)nc5c3F)N3CCOCC[C@H]3CC4)c12` (single isomer, unassigned) [Example 9-1], the EC50 in assay [1] (Homo sapiens, ASPC1) was found to be 315 nM; in assay [3], 46.9 nM; in assay [4] (Homo sapiens), 15.8 nM; in assay [5] (Homo sapiens), 101 nM.
Take `C#Cc1c(F)ccc2cc(O)cc(-c3nc4c5c(nc(OC[C@@]67CCCN6C[C@H](F)C7)nc5c3F)N3CCCC[C@H]3CC4)c12` [Example 1-1, 5-ethynyl-6-fluoro-4-((S)-1-fluoro-11-(((2R,7aS)-2-fluorotetrahydro-1H-pyrrolizin-7a(5H)-yl)methoxy)-5,5a,6,7,8,9-hexahydro-4H-3,9a,10,12-tetraazabenzo[4,5]cyclohepta[1,2,3-de]naphthalen-2-yl)naphthalen-2-ol]: the concentration giving a half-maximal response (EC50) came to 25.1 nM in assay [1] (read-out: AsPC1 pERK EC50), 3.89 nM in assay [3], 12.6 nM in assay [4] and 14.7 nM in assay [5].
Consider `C#Cc1c(F)ccc2cc(O)cc(-c3nc4c5c(nc(OC[C@@]67CCCN6C[C@H](F)C7)nc5c3F)N3CCOCC[C@@H]3CCC4)c12` (single isomer, unassigned) [Example 10-2], for which the EC50 in assay [1] (Homo sapiens, ASPC1) is above 1000 nM; in assay [3], 340 nM; in assay [4] (Homo sapiens) it was 248 nM; in assay [5] (Homo sapiens), above 1000 nM.
Regarding `C#Cc1c(F)ccc2cccc(-c3nc4c5c(nc(OC[C@@]67CCCN6C[C@H](F)C7)nc5c3F)N3CCCOC[C@@H]3CC4)c12` [Example 6-7], the EC50 was above 1000 nM in assay [1] (Homo sapiens, ASPC1); 384 nM in assay [3]; 328 nM in assay [4] (Homo sapiens); 825 nM in assay [5] (Homo sapiens).
The corresponding values for `C#Cc1c(F)ccc2cccc(-c3nc4c5c(nc(OC[C@@]67CCCN6[C@H](COC(=O)NCC)CC7)nc5c3F)N3CCCOC[C@@H]3CC4)c12` [Example 16-3] are 14 nM, 5.23 nM, 2.76 nM and 12.7 nM.
For `C#Cc1c(F)ccc2cc(O)cc(-c3nc4c5c(nc(OC[C@@]67CCCN6C[C@H](F)C7)nc5c3F)N3CCCOCC3C[C@H]4F)c12` (stereo partly shown) [Example 22-6], the EC50 in assay [1] (Homo sapiens, ASPC1) is 97.1 nM; in assay [3], 28.8 nM; in assay [4] (Homo sapiens), 17.4 nM; in assay [5] (Homo sapiens), 58.7 nM.
